Reference: ChEMBL document CHEMBL1201862, “PubChem BioAssay data set” (2004)
The source made the active and inactive calls.

Columns and labels:
Hexokinase HKDC1 = molecular target: T1, Hexokinase HKDC1 (Homo sapiens, UniProt Q2TB90); test: SAR analysis of small molecule inhibitors of hexokinase domain containing I (HKDC1). [Related pubchem assays (depositor defined):AID493160, AID493190]; format: functional
T1 sequence (Q2TB90 whole entry): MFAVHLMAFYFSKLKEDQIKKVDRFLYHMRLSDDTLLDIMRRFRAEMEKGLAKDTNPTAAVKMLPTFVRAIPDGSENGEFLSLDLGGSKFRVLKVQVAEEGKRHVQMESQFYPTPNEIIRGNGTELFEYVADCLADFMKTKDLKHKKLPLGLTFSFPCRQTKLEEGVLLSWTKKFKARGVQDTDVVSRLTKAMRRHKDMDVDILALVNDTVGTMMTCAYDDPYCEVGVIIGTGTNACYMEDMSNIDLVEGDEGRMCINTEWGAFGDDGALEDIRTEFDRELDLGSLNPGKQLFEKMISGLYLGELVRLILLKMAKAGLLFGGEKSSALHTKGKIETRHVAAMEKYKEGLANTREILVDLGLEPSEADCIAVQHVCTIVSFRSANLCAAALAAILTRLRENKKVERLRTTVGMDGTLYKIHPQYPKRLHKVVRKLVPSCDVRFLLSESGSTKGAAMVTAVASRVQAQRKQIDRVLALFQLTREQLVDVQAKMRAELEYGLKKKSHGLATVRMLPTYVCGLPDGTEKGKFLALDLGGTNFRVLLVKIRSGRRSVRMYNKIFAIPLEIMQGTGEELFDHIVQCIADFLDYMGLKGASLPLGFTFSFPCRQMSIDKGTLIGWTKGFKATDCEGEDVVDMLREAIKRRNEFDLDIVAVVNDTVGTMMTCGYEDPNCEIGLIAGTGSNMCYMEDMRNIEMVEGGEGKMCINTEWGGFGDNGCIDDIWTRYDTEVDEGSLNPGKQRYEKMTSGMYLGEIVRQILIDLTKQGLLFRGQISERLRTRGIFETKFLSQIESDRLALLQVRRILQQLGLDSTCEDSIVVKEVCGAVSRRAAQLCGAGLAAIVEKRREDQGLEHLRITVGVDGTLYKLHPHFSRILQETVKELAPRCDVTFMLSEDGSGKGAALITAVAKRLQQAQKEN

Hexokinase-1 = Hexokinase-1 (Homo sapiens, UniProt P19367); test: SAR analysis of small molecule inhibitors of hexokinase domain containing I (HKDC1) in the hexokinase 1 selectivity assay. [Related pubchem assays (depositor defined):AID493160, AID493190]; format: functional
[1] = molecular target: Nuclear receptor subfamily 0 group B member 1 (Homo sapiens, UniProt P51843); test: Luminescence-based cell-based high throughput dose response assay for inhibitors of the orphan nuclear receptor subfamily 0, group B, member 1 (DAX1; NR0B1). [Related pubchem assays (depositor defined):AID504766, AID504790]; format: functional
HEK293 = test: cells; format: functional, cell-based; details: Homo sapiens
[2] = molecular target: Induced myeloid leukemia cell differentiation protein Mcl-1 (Homo sapiens, UniProt Q07820); format: functional
[3] = molecular target: T2, Rac GTPase-activating protein 1 (Homo sapiens, UniProt Q9H0H5); test: MgcRacGAP GTPase-activating activity inhibitors, confirmation, biochemical, ADP Hunter fluorescence, primary and confirmatory (AID 624330); format: functional
T2 sequence (Q9H0H5 whole entry): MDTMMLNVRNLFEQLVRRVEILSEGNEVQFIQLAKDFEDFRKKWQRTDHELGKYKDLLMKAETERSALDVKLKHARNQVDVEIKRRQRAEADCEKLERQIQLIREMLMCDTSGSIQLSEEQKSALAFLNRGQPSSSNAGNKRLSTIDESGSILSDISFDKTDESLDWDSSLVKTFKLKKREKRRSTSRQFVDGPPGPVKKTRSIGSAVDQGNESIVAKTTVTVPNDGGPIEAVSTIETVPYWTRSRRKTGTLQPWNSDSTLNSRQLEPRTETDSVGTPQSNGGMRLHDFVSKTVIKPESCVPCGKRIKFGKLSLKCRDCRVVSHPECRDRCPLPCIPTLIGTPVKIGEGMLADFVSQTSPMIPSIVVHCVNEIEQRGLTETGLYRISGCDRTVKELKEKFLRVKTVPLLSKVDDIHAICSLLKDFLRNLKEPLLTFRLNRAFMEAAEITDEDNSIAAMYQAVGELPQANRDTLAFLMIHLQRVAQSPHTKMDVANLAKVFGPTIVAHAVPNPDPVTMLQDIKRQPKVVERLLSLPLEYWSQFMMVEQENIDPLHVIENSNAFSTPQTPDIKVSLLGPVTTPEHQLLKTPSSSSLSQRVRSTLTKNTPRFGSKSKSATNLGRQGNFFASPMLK

ORF 73 = ORF 73 (Human herpesvirus 8, UniProt O40947); test: inhibitors of C-LANA binding to LBS DNA, dose response, biochemical, fluorescence polarization, cherry-picked samples (AID 504725); set-up: species or system Human gammaherpesvirus 8;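 note: fluorescence polarization of a labeled DNA duplex reporting LANA DNA binding; potency is for inhibitors that block LANA binding to the DNA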
[4] = molecular target: T3, Heat shock 70 kDa protein 1A (Homo sapiens, UniProt P0DMV8); test: Hsp70 inhibitors, probe displacement, primary screen, biochemical, fluorescence polarization (AID 583)
Troponin, cardiac muscle = Troponin, cardiac muscle (Homo sapiens, UniProt P19429+P45379+P63316); test: inhibitors of cardiac thin filament calcium sensitivity, dose response, biochemical, fluorescence, cardiac regulated thin filaments, triplicate IC50 (AID 504742); format: protein-complex assay
[5] = molecular target: T4, Zinc finger protein mex-5 (Caenorhabditis elegans, UniProt Q9XUB2); test: MEX-5/TCR-2 RNA interaction inhibitors, dose response, biochemical, C. elegans, fluorescence polarization (AID 1960)
T4 sequence (Q9XUB2 whole entry): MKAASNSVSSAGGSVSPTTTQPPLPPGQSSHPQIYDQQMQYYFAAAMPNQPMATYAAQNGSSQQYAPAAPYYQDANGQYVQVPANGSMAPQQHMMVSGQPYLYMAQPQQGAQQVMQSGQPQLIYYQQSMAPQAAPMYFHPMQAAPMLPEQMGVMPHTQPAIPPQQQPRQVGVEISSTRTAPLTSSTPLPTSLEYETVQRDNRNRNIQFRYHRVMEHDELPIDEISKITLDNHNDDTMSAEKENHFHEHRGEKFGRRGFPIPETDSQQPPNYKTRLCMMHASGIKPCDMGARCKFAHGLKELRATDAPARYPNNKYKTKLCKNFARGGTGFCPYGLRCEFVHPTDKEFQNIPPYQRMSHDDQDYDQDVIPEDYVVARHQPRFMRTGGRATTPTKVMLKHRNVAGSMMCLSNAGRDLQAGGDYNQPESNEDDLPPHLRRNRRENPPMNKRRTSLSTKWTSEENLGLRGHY

[6] = molecular target: T3, Heat shock 70 kDa protein 1A; test: Hsp70 inhibitors, biochemical, TR-FRET (AID 786)
[7] = molecular target: T5, RNA-binding protein pos-1 (Caenorhabditis elegans, UniProt G5EF15); test: inhibitors of POS-1/mex-3 RNA binding, dose response, biochemical, fluorescence polarization (AID 1964);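 note: purified POS-1 fused to maltose binding protein made in E. coli; potency of compounds blocking POS-1 binding to fluorescent RNA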
T5 sequence (G5EF15 whole entry): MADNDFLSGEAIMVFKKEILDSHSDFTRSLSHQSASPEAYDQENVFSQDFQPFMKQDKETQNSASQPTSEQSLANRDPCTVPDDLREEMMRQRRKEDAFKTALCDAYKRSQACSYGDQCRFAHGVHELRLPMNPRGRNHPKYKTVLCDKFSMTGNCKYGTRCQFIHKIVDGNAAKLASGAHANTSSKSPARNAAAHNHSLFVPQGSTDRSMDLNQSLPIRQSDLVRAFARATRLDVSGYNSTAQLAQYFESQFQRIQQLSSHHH

[8] = molecular target: T6, Histone-lysine N-methyltransferase NSD2 (Homo sapiens, UniProt O96028); format: biochemical
T6 sequence (O96028 whole entry): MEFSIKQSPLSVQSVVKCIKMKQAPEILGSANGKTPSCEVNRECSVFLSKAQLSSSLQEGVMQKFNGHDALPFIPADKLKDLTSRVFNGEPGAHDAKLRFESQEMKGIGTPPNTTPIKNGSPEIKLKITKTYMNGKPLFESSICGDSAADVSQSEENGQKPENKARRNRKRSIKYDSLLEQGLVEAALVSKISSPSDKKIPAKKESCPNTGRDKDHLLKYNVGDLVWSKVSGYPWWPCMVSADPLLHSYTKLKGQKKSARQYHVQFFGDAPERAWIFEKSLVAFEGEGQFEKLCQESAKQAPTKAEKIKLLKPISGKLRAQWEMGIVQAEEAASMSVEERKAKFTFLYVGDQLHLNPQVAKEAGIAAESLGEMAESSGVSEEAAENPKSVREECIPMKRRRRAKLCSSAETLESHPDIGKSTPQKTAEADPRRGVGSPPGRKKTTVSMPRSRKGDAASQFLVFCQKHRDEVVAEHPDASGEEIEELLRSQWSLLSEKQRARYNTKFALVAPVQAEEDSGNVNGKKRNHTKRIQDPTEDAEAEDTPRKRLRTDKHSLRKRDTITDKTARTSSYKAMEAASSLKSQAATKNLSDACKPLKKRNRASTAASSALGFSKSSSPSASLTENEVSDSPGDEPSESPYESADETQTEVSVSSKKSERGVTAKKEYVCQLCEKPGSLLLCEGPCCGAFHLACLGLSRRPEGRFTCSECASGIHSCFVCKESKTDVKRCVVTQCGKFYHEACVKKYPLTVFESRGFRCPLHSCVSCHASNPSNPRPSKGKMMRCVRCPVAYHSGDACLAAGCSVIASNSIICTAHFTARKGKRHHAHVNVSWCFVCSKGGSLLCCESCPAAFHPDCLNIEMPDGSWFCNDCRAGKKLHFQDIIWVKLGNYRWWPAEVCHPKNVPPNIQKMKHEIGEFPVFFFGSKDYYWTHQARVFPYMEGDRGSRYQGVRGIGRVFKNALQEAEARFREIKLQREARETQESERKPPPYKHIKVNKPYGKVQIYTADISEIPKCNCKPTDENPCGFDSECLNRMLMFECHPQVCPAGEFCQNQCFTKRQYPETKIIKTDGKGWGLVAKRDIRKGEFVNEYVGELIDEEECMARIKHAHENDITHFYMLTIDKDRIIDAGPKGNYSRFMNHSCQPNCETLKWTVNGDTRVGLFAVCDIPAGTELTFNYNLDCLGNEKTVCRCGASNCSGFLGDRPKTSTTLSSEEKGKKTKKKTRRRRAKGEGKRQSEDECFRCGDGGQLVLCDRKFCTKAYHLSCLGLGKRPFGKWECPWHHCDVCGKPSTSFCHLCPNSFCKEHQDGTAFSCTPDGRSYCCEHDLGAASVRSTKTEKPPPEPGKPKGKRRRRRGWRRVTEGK

[9] = molecular target: Beta-adrenergic receptor kinase 1 (Homo sapiens, UniProt P25098); test: aptamer displacement from bead-bound GRK2 – biochemical, cherry pick 1, bead flow cytometry, dose response (AID 504500)
[10] = molecular target: DNA (cytosine-5)-methyltransferase 1 (Homo sapiens, UniProt P26358); test: DNMT1 methyltransferase inhibitors, confirmation, biochemical, fluorescent molecular beacon (AID 602386); format: functional
[11] = THP-1 cell cytotoxicity, dose response, cytotoxicity control for Vif-APOBEC3G degradation inhibitor project, THP-1 cells (AID 1117359); format: functional; details: Human immunodeficiency virus 1, THP-1
Large T antigen = Large T antigen (Simian virus 40, UniProt P03070); format: functional, Betapolyomavirus macacae;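 note: Confirmatory-stage PubChem screen for compounds that inhibit SV40 T antigen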
[12] = molecular target: Beta-2 adrenergic receptor (Homo sapiens, UniProt P07550); test: beta2AR agonists driving receptor internalization, dose response, cell-based, FAP fluorogen, flow cytometry, cherry pick 1 (AID 588763); format: functional
[13] = molecular target: T7, Ubiquitin-conjugating enzyme E2 N (Homo sapiens, UniProt P61088); format: functional
T7 sequence (P61088 whole entry): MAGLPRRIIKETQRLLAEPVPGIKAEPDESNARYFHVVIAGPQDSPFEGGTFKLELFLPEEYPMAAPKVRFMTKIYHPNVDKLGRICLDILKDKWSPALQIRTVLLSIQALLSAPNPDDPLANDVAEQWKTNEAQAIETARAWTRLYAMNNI

[14] = molecular target: Serine/threonine-protein phosphatase (Candida dubliniensis (strain CD36 / CBS 7987 / NCPF 3949 / NRRLY-17841) (Yeast), UniProt B9W6M3); test: calcineurin pathway inhibitors in yeast reporter, dose response, S. cerevisiae, CDRE-lacZ, luminescence, secondary (AID 2388); format: functional, cell-based;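 note: yeast reporter cells carrying a calcineurin-responsive lacZ construct stimulated with calcium chloride; luminescent beta-galactosidase reporter signal in whole cells rather than isolated phosphatase activity; potency for inhibition where a drop in reporter signal means calcineurin blockade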
[15] = molecular target: T7, Ubiquitin-conjugating enzyme E2 N; format: functional; remark: listed apart in the source
Bcl-2-related protein A1 = molecular target: T8, Bcl-2-related protein A1 (Mus musculus, UniProt Q07440); format: functional;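 note: confirmatory dose–response counterscreen on Bfl-1, used to check hits from a UBC13 polyubiquitin inhibitor campaign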
T8 sequence (Q07440 whole entry): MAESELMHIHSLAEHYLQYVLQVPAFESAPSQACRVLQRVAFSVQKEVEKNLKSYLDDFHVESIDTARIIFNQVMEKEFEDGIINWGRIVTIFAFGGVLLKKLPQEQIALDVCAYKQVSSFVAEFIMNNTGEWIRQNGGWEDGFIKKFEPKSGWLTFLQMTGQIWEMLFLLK

[16] = molecular target: ATP-dependent molecular chaperone HSP82 (Candida albicans (strain WO-1) (Yeast), UniProt C4YTQ8); test: loss of DOC-induced GRE-beta-galactosidase reporter signal, dose response, Hsp90 inhibitor project, S. cerevisiae, luminescence (AID 2400); format: functional, cell-based;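 note: beta-galactosidase luminescence from glucocorticoid response element reporter as proxy for Hsp90 function; inhibitor potency where signal loss means Hsp90 inhibition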

T3 sequence (P0DMV8 whole entry): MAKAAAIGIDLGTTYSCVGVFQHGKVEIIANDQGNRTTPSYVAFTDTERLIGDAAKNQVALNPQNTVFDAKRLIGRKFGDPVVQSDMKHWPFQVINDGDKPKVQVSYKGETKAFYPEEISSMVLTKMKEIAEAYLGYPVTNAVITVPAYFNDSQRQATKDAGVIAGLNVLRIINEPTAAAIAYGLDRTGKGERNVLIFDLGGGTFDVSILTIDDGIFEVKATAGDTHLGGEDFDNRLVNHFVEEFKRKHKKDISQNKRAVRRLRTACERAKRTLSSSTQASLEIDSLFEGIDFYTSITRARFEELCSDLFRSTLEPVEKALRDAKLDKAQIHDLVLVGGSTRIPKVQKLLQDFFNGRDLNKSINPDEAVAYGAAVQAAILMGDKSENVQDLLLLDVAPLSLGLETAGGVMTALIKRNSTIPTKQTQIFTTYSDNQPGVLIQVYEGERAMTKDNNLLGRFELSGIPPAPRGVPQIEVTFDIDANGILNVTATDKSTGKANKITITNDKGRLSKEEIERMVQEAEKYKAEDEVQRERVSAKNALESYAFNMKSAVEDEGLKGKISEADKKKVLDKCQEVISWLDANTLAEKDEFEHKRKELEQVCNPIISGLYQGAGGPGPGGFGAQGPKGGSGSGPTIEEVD
Sequence of Hexokinase-1 (P19367 whole entry, the tested form may be a part): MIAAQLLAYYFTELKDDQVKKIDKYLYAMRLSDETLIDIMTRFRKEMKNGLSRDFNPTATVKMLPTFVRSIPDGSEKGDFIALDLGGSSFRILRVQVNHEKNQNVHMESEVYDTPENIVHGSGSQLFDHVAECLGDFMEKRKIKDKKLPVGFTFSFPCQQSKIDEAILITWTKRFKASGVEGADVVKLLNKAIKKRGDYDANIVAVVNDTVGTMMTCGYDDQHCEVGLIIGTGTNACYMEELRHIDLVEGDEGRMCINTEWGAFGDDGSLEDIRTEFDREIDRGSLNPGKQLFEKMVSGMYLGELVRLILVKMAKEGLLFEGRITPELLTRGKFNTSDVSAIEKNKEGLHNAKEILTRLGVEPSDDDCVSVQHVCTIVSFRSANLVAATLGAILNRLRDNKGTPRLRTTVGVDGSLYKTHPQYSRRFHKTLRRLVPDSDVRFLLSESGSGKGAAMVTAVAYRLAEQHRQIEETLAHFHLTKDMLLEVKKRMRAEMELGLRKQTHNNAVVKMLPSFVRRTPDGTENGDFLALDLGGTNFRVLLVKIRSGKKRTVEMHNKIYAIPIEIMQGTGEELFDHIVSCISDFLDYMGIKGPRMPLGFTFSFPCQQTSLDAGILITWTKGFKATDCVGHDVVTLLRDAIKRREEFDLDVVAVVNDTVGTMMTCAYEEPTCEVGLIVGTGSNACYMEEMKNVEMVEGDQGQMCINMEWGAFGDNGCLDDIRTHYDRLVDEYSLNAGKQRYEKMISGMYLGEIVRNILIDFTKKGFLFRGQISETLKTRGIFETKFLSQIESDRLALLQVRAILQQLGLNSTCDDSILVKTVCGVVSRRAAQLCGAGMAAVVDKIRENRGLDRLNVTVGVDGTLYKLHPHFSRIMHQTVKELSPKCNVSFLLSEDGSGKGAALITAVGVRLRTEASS
Sequence of Induced myeloid leukemia cell differentiation protein Mcl-1 (Q07820 whole entry): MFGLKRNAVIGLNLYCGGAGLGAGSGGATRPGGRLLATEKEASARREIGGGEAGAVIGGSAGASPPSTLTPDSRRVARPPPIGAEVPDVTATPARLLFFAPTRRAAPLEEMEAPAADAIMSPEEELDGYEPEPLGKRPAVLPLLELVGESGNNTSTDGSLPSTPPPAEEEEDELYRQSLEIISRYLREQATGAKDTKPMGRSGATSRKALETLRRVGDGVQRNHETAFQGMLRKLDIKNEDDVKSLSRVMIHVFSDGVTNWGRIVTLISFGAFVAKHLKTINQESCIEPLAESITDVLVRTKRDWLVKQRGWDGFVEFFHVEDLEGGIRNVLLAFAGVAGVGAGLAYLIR
Sequence of Serine/threonine-protein phosphatase (B9W6M3 whole entry): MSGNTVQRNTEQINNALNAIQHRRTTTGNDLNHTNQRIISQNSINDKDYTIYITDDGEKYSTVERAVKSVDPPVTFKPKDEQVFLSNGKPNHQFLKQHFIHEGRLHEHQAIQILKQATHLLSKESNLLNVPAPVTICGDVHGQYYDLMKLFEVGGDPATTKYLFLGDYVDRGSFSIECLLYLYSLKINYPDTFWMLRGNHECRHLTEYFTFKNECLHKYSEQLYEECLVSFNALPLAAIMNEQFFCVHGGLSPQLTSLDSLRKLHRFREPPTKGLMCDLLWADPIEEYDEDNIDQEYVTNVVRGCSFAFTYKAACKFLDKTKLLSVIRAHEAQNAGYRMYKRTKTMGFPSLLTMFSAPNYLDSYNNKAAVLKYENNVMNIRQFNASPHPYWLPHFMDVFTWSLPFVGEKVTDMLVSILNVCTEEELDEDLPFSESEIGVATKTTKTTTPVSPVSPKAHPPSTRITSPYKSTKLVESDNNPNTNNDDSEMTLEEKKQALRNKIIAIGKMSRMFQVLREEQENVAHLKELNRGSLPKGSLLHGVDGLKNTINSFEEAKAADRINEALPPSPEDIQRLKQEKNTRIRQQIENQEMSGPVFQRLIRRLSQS
Sequence of DNA (cytosine-5)-methyltransferase 1 (P26358 whole entry): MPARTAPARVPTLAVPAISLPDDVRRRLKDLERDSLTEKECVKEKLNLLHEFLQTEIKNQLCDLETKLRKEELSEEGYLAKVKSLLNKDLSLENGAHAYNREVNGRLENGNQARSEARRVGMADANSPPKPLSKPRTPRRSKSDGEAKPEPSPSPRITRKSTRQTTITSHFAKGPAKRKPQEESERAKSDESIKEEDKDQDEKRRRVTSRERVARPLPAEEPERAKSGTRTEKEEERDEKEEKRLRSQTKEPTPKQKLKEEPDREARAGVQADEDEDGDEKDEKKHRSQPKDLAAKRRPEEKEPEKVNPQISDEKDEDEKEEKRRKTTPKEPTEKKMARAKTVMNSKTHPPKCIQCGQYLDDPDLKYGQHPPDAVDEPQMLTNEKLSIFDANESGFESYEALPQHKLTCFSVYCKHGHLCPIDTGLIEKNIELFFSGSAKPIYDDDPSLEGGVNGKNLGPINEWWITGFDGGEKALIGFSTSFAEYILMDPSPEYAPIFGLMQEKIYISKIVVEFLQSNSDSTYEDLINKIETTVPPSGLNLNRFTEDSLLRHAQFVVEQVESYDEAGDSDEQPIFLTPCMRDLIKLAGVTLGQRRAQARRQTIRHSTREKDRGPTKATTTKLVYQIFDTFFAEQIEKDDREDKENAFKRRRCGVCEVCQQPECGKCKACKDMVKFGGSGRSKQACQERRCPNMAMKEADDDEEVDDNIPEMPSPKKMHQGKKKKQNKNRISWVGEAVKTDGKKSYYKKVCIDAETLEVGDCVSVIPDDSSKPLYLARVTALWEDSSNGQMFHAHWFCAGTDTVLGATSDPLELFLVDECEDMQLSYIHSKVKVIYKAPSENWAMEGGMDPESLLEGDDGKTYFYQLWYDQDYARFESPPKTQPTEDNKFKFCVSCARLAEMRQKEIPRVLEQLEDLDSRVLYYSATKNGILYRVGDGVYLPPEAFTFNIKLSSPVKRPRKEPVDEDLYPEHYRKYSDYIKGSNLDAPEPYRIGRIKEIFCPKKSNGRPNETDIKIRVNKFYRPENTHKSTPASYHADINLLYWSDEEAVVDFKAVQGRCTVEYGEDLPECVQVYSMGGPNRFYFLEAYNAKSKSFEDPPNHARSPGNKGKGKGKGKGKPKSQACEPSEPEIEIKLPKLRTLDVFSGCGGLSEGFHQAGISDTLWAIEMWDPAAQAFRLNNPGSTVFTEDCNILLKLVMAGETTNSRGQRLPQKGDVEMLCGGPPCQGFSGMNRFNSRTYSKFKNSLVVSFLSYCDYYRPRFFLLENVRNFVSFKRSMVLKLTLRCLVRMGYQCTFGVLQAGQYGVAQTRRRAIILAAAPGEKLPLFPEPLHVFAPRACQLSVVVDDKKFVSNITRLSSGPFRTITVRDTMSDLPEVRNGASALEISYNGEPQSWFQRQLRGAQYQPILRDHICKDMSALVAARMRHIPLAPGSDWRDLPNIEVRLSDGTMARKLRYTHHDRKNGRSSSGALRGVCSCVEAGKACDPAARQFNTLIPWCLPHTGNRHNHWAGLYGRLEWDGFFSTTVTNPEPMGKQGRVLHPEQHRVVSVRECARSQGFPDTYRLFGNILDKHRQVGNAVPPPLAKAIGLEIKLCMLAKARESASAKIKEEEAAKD
Sequence of Beta-adrenergic receptor kinase 1 (P25098 whole entry): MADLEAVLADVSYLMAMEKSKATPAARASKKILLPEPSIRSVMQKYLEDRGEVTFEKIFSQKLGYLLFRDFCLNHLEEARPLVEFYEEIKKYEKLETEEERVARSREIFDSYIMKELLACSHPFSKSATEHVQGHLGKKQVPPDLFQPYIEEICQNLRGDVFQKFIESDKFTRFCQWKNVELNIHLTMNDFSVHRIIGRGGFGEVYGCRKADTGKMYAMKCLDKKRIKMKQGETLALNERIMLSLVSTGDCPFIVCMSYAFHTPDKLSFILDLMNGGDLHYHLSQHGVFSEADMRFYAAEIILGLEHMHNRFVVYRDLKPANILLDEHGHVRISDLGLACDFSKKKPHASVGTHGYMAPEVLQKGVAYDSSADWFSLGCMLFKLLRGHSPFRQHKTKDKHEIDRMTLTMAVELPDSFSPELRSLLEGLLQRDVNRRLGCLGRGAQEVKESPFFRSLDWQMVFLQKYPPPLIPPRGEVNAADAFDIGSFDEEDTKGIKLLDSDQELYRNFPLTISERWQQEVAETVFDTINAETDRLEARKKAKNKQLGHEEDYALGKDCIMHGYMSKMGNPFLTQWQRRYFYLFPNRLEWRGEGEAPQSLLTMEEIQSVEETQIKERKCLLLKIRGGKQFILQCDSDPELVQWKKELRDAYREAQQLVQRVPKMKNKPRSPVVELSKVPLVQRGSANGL

SMILES: O=c1c2ccccc2nc(/C=C/c2cccnc2)n1-c1ccccc1
- IC50 (Hexokinase HKDC1): > 80 µM (inactive)
- IC50 (Hexokinase-1): > 80 µM (inactive)

SMILES: Cc1cc(NC(=O)c2cc3cccc([N+](=O)[O-])c3[nH]2)ccc1F
- IC50 [1]: > 67.5 µM (inactive)
- IC50 (HEK293): > 67.5 µM (inactive)

SMILES: CC1=NN(c2cccc(C(=O)O)c2)C(=O)/C1=C\C=C\c1ccco1
- IC50 [2]: 4.73 µM (active)
- IC50 [3]: 66.7 µM (active)
- AC50 (ORF 73): 18 µM (active)
- IC50 [4]: 21.7 µM (active)
- IC50 (Troponin, cardiac muscle): 15 µM (inactive)
- EC50 [5]: 23.7 µM (inconclusive)
- IC50 [6]: 17.4 µM (active)
- EC50 [7]: 19.9 µM (active)
- AC50 [8]: 2.19 µM (active)
- EC50 [9]: 14.8 µM (inactive)
- IC50 [10]: 1.18 µM (active)
- CC50 [11]: > 40 µM (active)
- IC50 (Large T antigen): 27.6 µM (active)

SMILES: CCOC(=O)N1CCN(c2nnc(-c3ccc(C)cc3)c3ccccc23)CC1
- EC50 [12]: 1.04 µM (active)

SMILES: Fc1cccc(-n2cc(-c3ccccc3)c3c(=S)[nH]cnc32)c1
- IC50 [13]: > 20 µM (inactive)
- EC50 [14]: > 180 µM (inactive)
- IC50 [15]: 9.98 µM (active)
- IC50 (Bcl-2-related protein A1): > 20 µM (inactive)
- EC50 [16]: 19.2 µM (active)
